Tests used:
C3AR1 = molecular target: T1, C3AR1 (Homo sapiens, UniProt Q16581); assay: NanoBRET screen HiBiT-C3AR1 in HEK293; type: binding
T1 construct: purchased Promega (in-house HiBiT-GPCR construct library, NanoBRET)
T1 sequence (Q16581 1-482): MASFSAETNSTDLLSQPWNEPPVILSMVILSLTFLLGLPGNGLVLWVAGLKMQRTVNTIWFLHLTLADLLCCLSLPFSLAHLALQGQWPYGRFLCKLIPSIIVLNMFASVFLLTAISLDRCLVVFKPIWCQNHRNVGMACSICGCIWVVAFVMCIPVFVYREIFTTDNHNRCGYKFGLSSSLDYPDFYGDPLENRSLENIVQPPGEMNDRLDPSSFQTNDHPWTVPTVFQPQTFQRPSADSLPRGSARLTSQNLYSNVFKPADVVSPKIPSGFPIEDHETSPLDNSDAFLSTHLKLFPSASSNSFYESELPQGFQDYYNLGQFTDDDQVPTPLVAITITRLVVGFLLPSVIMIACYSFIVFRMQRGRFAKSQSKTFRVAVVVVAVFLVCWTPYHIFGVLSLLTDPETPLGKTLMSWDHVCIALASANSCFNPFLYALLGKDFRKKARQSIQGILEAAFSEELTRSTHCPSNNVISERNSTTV
Method: (§1) Each tracer candidate was screened across the entire library of HiBiT-GPCR constructs using NanoBRET as the detection modality. As depicted in Figure 4A, the specificity of interactions was evaluated through decrease in BRET due to competitive displacement of a bound tracer by excess parental compound. Each tracer was analyzed for binding to each HiBiT-GPCR fusion in the absence and in the presence of competing parental compound. Briefly, HEK293 cells were transfected with HiBiT-GPCR constructs diluted into promoterless DNA to reduce expression and maximize translocation to the cell surface. Each tracer candidate was then screened at concentrations of 1 μM and 0.1 μM across cells expressing these fusions. Cells were treated for 1.5 h with tracer either alone or in the presence of 20 μM competing parental compound (i.e., control). BRET was measured upon addition of purified LgBiT and subsequent complementation with HiBiT genetically fused to a GPCR. The specificity of interactions was assessed through a decrease in BRET signal due to competitive displacement of the bound tracer. To further gauge the robustness of these interactions, the fold response over the control (i.e., BRETtracer/BRETcontrol) was calculated. We chose a 1.5-fold response, which translates to ≥7-fold signal over noise as the minimal threshold required to score an interaction as positive. […]. Below we highlight the screening results obtained for our exemplary fluorescent tracers based on Clozapine, Amitriptyline and AZD1283.
(§2) HiBiT-GPCR DNA constructs were diluted in 10 mM Tris pH 8 to a final concentration of 0.01 μg/μL, arrayed in 96-well plates and stored at −20 °C. For transfection, HEK293 cells were suspended in Opti-MEM (without phenol red) supplemented with 2% fetal bovine serum (Seradigm) and 100 units/mL penicillin–streptomycin (Gibco) at a final concentration of 220,000 cells/mL and dispensed into white 96-well plates at 90 μL/well. Subsequent transfections and screens were carried using an Agilent Bravo Automated Liquid Handling Platform. First, the 96-well HiBiT DNA arrays were diluted 25-fold in Opti-MEM (without serum or phenol red) to a final concentration of 0.0004 μg/μL and 20 μL of the diluted DNAs were transferred into new 96-well plates. Next, promoterless carrier DNA (1 μg/μL) was diluted 25-fold (0.04 μg/μL) and then dispensed into the diluted arrays at 20 μL/well. Following brief mixing, Viafect transfection reagent (Promega) diluted 16-fold into Opti-MEM was dispensed into the plates at 40 μL/well. After mixing by pipetting, plates were incubated for 10 min on the pipetting station deck. The DNA-transfection reagent complexes were then added to plates containing cells. To facilitate the screen, 10 μL of DNA-transfection reagent complexes were added in duplicates to the top 4 and bottom 4 rows, resulting in two identical 48-well arrays per plate. Plates with transfected cells were incubated for 18–20 h at 37 °C/5% CO2. A screen of each tracer across the entire library using two different concentrations requires duplicate plates of transfected cells. Depending on the number of tracers being screened, transfections can be scaled up using the same ratios. The next day, for each tracer, four 20× screening solutions in tracer dilution buffer (Promega) were prepared: two duplicates at final concentration of 20 μM and two duplicates at a final concentration of 2 μM. A competing unmodified compound was added to one of each duplicate at a final concentration of 400 μM. The four resulting solutions were diluted 4-fold in Opti-MEM without serum or phenol red to generate 5× solutions (5 µM and 0.5 µM tracer +/− 100 μM competing compound). To screen the library, a BioTek MultiFlo FX liquid dispenser was used to dispense 22.5 µL of tracer solution to the top 4 rows and 22.5 µL tracer + competing compound solution to the 4 bottom rows. Plates were briefly mixed on an orbital shaker and incubated for 1.5 h at room temperature. […]

FSHR = molecular target: T2, FSHR (Homo sapiens, UniProt P23945); assay: NanoBRET screen HiBiT-FSHR in HEK293; type: binding
T2 construct: purchased Promega (in-house HiBiT-GPCR construct library, NanoBRET)
T2 sequence (P23945 18-695): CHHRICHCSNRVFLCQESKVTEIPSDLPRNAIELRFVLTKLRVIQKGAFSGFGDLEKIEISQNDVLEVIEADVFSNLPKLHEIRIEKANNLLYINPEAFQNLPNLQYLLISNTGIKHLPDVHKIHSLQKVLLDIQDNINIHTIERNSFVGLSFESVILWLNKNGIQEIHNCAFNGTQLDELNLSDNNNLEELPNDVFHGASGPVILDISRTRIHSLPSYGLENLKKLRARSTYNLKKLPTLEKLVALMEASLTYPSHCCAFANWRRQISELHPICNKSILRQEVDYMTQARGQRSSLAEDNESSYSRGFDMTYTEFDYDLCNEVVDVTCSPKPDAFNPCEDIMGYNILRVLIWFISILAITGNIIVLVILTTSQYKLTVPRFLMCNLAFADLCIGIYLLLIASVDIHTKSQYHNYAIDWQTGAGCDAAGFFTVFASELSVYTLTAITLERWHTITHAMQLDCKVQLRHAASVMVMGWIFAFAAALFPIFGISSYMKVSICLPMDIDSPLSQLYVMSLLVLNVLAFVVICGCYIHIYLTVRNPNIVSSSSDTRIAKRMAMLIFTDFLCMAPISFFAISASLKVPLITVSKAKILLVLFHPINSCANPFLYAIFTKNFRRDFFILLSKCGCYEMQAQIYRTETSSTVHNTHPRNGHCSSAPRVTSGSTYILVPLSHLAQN
Method: as §1, §2

| SMILES | NanoBRET Fold Response (C3AR1; C3AR1, tracer 0.1μM) | NanoBRET Fold Response (C3AR1; C3AR1, tracer 1μM) | NanoBRET Fold Response (FSHR; FSHR, tracer 0.1μM) | NanoBRET Fold Response (FSHR; FSHR, tracer 1μM) | NanoBRET Fold Response (C3AR1; 0.1μM tracer) | NanoBRET Fold Response (C3AR1; 1μM tracer) | NanoBRET Fold Response (FSHR; 0.1μM tracer) | NanoBRET Fold Response (FSHR; 1μM tracer) |
| --- | --- | --- | --- | --- | --- | --- | --- | --- |
| O=C(CCc1ccc2n1[B-](F)(F)[N+]1=C(c3ccc[nH]3)C=CC1=C2)NCc1ccc(C(=O)NCCOCCC(=O)N[C@@H]2CC[C@@]3(O)[C@H]4Cc5ccc(O)c6c5[C@@]3(CCN4CC3CC3)[C@H]2O6)cc1 [Naltrexone-3-NB590] | 0.99 | 1.02 | 0.98 | 1.07 | – | – | – | – |
| COc1ccccc1N1CCN(CCCCN2C(=O)c3ccc(CNC(=O)CCOCCNC(=O)c4ccc(CNC(=O)CCc5ccc6n5[B-](F)(F)[N+]5=C(c7ccc[nH]7)C=CC5=C6)cc4)cc3C2=O)CC1 [NAN-190-3-NB590] | 0.90 | 0.93 | 0.88 | 1.12 | – | – | – | – |
| Cc1cc2c(s1)Nc1ccccc1N=C2N1CCN(CCCNC(=O)CCOCCOCCOCCOCCNC(=O)CCc2ccc3n2[B-](F)(F)[N+]2=C(c4ccc[nH]4)C=CC2=C3)CC1 [Olanzapine-a-2-NB590] | 1.01 | 1.01 | 1.10 | 0.99 | – | – | – | – |
| CCCn1c(=O)c2[nH]c(-c3ccc(OCC(=O)NCCNC(=O)CCOCCNC(=O)c4ccc(CNC(=O)CCc5ccc6n5[B-](F)(F)[N+]5=C(c7ccc[nH]7)C=CC5=C6)cc4)cc3)nc2n(CCC)c1=O [XAC-3-NB590] | 1.15 | 0.96 | 1.18 | 1.04 | – | – | – | – |
| COc1ccc2c(n1)c(CCNC(C)=O)cn2CCNC(=O)CCc1ccc2n1[B-](F)(F)[N+]1=C(c3ccc[nH]3)C=CC1=C2 [Azamelatonin-1-NB590] | – | – | – | – | 0.88 | 0.98 | 1.08 | 1.08 |

From article PMC8151276, “An Integrated Approach toward NanoBRET Tracers for Analysis of GPCR Ligand Engagement” (Molecules, 2021)
